Laboratory results reported in patent publication US7700592B2, “α2C adrenoreceptor agonists” (Schering Corporation, priority 2005, dated 2010).

target: T1, α2C receptor (Homo sapiens, UniProt P18825); assay: GTPγS assay, efficacy agonist activity (Emax) for α2C; format: biochemical; details: active agonist = efficacy at α2C ≧30% Emax; functionally selective = additionally efficacy at α2A ≦30% Emax (GTPγS assay)
T1 sequence (P18825 1-462): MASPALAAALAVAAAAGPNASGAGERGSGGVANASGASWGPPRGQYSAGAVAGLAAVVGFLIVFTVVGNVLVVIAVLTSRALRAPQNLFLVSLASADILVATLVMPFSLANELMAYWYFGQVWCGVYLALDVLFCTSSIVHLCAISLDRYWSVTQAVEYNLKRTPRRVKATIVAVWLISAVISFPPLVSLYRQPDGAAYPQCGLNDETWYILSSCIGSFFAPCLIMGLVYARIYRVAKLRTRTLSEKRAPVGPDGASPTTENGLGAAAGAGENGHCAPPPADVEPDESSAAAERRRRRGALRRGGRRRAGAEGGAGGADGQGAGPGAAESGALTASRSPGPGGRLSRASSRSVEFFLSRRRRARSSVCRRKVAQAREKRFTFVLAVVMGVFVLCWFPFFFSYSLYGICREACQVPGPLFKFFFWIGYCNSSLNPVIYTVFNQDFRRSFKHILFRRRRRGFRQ
Source text: For the purposes of this present invention, a compound is defined to be an active agonist of the α2C receptor subtype if the compound's efficacy at the α2C receptor is ≧30% Emax (GTPγS assay). A compound is a functionally selective agonist of the α2C receptor subtype over the α2A receptor subtype if the compound's efficacy at the α2C receptor is ≧30% Emax (GTPγS assay) and its efficacy at the α2A receptor is ≦30% Emax (GTPγS assay).
Efficacy agonist activity values (Emax, GTPγS assay) for α2C were determined by following the general procedure detailed by Umland et al (“Receptor reserve analysis of the human α2c-adrenoceptor using [^35S]GTPγS and cAMP functional assays” European Journal of Pharmacology 2001, 411, 211-221). For the purposes of the present invention, a compound is defined to be an active agonist of the α2C receptor subtype if the compound's efficacy at the α2C receptor is ≧30% Emax (GTPγS assay). A compound is a functionally selective agonist of the α2C receptor subtype over the α2A receptor subtype if the compound's efficacy at the α2C receptor is […] Emax (GTPγS assay) and its efficacy at the α2A receptor is ≦30% Emax (GTPγS assay).

SMILES	Efficacy agonist activity (Emax, GTPγS assay) for α2C: evaluated as active or functionally selective agonist
CCN(C(=O)n1ccnc1)c1ccc2c(c1)N(Cc1c[nH]cn1)CCO2 [Compound 64A]	active or functionally selective agonists of the α2C receptor subtype
CCN(C(=O)OCc1ccccn1)c1ccc2c(c1)N(Cc1c[nH]cn1)CCO2 [Compound 64]	active or functionally selective agonists of the α2C receptor subtype
CCN(C(=O)OCc1ccc(S(C)(=O)=O)cc1)c1ccc2c(c1)N(Cc1c[nH]cn1)CCO2 [Compound 65]	active or functionally selective agonists of the α2C receptor subtype
COC(=O)Cc1ccc2c(c1)N(Cc1c[nH]cn1)CCO2 [Compound 114]	active or functionally selective agonists of the α2C receptor subtype
c1cnc2c(c1)OCCN2Cc1c[nH]cn1 [Compound 117]	active or functionally selective agonists of the α2C receptor subtype
Fc1cc(Br)cc2c1OCCN2Cc1c[nH]cn1 [Compound 124]	active or functionally selective agonists of the α2C receptor subtype
N#Cc1cc(F)c2c(c1)N(Cc1c[nH]cn1)CCO2 [Compound 125]	active or functionally selective agonists of the α2C receptor subtype
Cc1cc([N+](=O)[O-])cc2c1OCCN2Cc1c[nH]cn1 [Compound 129]	active or functionally selective agonists of the α2C receptor subtype
COC(=O)Nc1cc(C)c2c(c1)N(Cc1c[nH]cn1)CCO2 [Compound 130]	active or functionally selective agonists of the α2C receptor subtype
O=CNc1cc(F)c2c(c1)N(Cc1c[nH]cn1)CCO2 [Compound 132]	active or functionally selective agonists of the α2C receptor subtype
CNC(=O)N(C)c1cc(F)c2c(c1)N(Cc1c[nH]cn1)CCO2 [Compound 134]	active or functionally selective agonists of the α2C receptor subtype
COC(=O)N(C)c1cc(F)c2c(c1)N(Cc1c[nH]cn1)CCO2 [Compound 135]	active or functionally selective agonists of the α2C receptor subtype
COC(=O)Nc1ccc2c(n1)N(Cc1c[nH]cn1)CCO2 [Compound 137]	active or functionally selective agonists of the α2C receptor subtype
COC(=O)Nc1ccc2c(c1)N(CCc1c[nH]cn1)CCO2 [Compound 139]	active or functionally selective agonists of the α2C receptor subtype
CN(C)S(=O)(=O)Nc1ccc2c(c1)N(Cc1c[nH]cn1)CCS2 [Compound 142]	active or functionally selective agonists of the α2C receptor subtype
CNC(=O)N(C)c1ccc2c(c1)N(Cc1c[nH]cn1)CCS2 [Compound 144]	active or functionally selective agonists of the α2C receptor subtype
FC(F)(F)c1ccc2c(c1)N(Cc1c[nH]cn1)CCS2 [Compound 145]	active or functionally selective agonists of the α2C receptor subtype

SMILES	Efficacy agonist activity (Emax, GTPγS assay) for α2C: evaluated as active or functionally selective agonist
COc1ccc(-c2ccc3c(c2)N(Cc2c[nH]cn2)CCO3)cn1 [Compound 148]	active or functionally selective agonists of the α2C receptor subtype
CCN(C(=O)OC)c1ccc2c(c1)N(Cc1c[nH]cn1)CCO2 [Compound 151]	active or functionally selective agonists of the α2C receptor subtype
N=C(N)c1cc(F)c2c(c1)N(Cc1c[nH]cn1)CCO2 [Compound 152]	active or functionally selective agonists of the α2C receptor subtype
CCN(C(C)=O)c1ccc2c(c1)N(Cc1c[nH]cn1)CCO2 [Compound 158]	active or functionally selective agonists of the α2C receptor subtype
CCOC(=O)N(CC)c1ccc2c(c1)N(Cc1c[nH]cn1)CCO2 [Compound 159]	active or functionally selective agonists of the α2C receptor subtype
CCN(C(=O)OCCOC)c1ccc2c(c1)N(Cc1c[nH]cn1)CCO2 [Compound 160]	active or functionally selective agonists of the α2C receptor subtype
CC#CCOC(=O)N(CC)c1ccc2c(c1)N(Cc1c[nH]cn1)CCO2 [Compound 162]	active or functionally selective agonists of the α2C receptor subtype
CCN(C(=O)COC)c1ccc2c(c1)N(Cc1c[nH]cn1)CCO2 [Compound 163]	active or functionally selective agonists of the α2C receptor subtype
CCN(C(=O)CCOC)c1ccc2c(c1)N(Cc1c[nH]cn1)CCO2 [Compound 164]	active or functionally selective agonists of the α2C receptor subtype
CCN(C(=O)COCCOC)c1ccc2c(c1)N(Cc1c[nH]cn1)CCO2 [Compound 165]	active or functionally selective agonists of the α2C receptor subtype
CCN(C(=O)CCCc1ccccc1)c1ccc2c(c1)N(Cc1c[nH]cn1)CCO2 [Compound 167]	active or functionally selective agonists of the α2C receptor subtype
CNC(=O)N(C)c1ccc2c(c1)N(C(C#N)c1c[nH]cn1)CCO2 (stereo not drawn) [Compound 168]	active or functionally selective agonists of the α2C receptor subtype
CCN(C(=O)NC)c1ccc2c(c1)N(C(C#N)c1c[nH]cn1)CCO2 (stereo not drawn) [Compound 169]	active or functionally selective agonists of the α2C receptor subtype
COC(=O)Nc1ccc2c(c1)N(C(C#N)c1c[nH]cn1)CCO2 (stereo not drawn) [Compound 171]	active or functionally selective agonists of the α2C receptor subtype
CCN(C(=O)OC)c1cc(F)c2c(c1)N(Cc1c[nH]cn1)CCO2 [Compound 178]	active or functionally selective agonists of the α2C receptor subtype
COC(=O)Nc1cc(F)c2c(c1)N(C(C#N)c1c[nH]cn1)CCO2 (stereo not drawn) [Compound 181]	active or functionally selective agonists of the α2C receptor subtype
